Laboratory results published in patent publication US12564582B2 (Prilenia Neurotherapeutics Ltd., priority 2016, dated 2026).
Read-outs that look alike come from different tables or passages of the source.

How the values were obtained:
[1] = tested on: patients with Huntington's disease; details: Week 52
Description: Motor deficits can be objectively assessed using different Q-Motor assessments. All Q-Motor assessments are based on the application of precalibrated and temperature controlled force transducers and 3-dimensional position sensors with very high sensitivity and test-retest reliability across sessions and sites in a multicenter clinical study. Q-Motor measures thus aim to reduce the limited sensitivity of categorical clinical rating scales, the intra- and inter-rater variability, and placebo effects observed in scales such as UHDRS-TMS. In addition, Q-Motor assessments allow for the objective monitoring of unintended motor side-effects in clinical studies. Thus, Q-Motor is an objective, reliable, and sensitive measure of motor function that is free of rater bias and limits placebo effect influence.
This task assessed the regularity of hand taps performed when alternating between the palm and dorsal surface of the hand performing a repetitive pronation/supination movement. The force and duration of the hand taps are recorded similarly to the speeded tapping task. A tone cues the start and end of an assessment. Five trials of 10 seconds duration are performed with each hand.

[2] = tested on: neuroblastoma cell line; details: SIR-dependent manner (Geva 2016); cited from earlier work
[3] = tested on: patients with DYT1 and other primary genetic forms of dystonia; details: 45 mg b.i.d., 90 mg b.i.d.; 26 weeks
Description: The study population consists of those with DYT1 and other primary genetic forms of dystonia, as confirmed by genetic testing. The study's other inclusion criteria are patients with a BFMD score greater than 6, male or female patients, patients of any race or ethnicity, and patients with the ability to provide informed consent.
Burke-Fahn-Marsden Dystonia Rating Scale (BFMDRS) Rating Scale evaluates nine body parts (eyes, mouth, speech, swallowing, neck, trunk, right arm, right leg, left arm, and left leg) by rating the severity factor and provoking factors for each part on a 5 point scale of 0 (no dystonia) to 4 (indicating the presence of dystonia at rest). The dystonia scores of the eyes, mouth and neck are assigned a weighting factor of 0.5, while the other 6 parts are assigned a weighting factor of 1.0. The score of each part is obtained by multiplying the provoking factor by the severity factor and the weighting factor, and then summing the scores of each part. The maximum score possible is 120. A higher score indicates more severe dystonia. […]

[4] = tested on: patients with Huntington's disease
Protocol: These variables were analyzed in the same way as the primary efficacy endpoint except that the variable evaluation at baseline were included in the model instead of baseline UHDRS-TMS.

[5] = tested on: patients with Huntington's disease; details: for Δ to placebo, change from baseline in Q-Motor: Tap-Speed-Inter-Onset-interval-MN-Hand: Week 52
Description: The patient places their hand on a hand rest with their index finger positioned above a force-transducer. Recordings start after practice runs. The patient is instructed to finger tap as fast as possible between 2 auditory cues. The beginning of a tap is defined as a rise of the force by 0.05 N above maximal baseline level. The tap ends when it drops to 0.05 N before the maximal baseline level is reached again. The duration and variability of tap durations (TD), inter onset intervals (IOI), inter peak intervals (IPI), and inter tap intervals (ITI) are the exploratory outcome measures for speeded tapping. In addition, variability of peak tapping forces (TF) is calculated as coefficient of variation, and the tapping frequency (Freq), i.e., the number of taps between the onsets of the first and the last tap divided by the time in between, is determined. Five trials of 10 seconds duration are performed with each hand.

[6] = tested on: rat striatum; details: transcriptomic analysis (Geva 2016); cited from earlier work
[7] = 67.5 mg bid, HD1 and HD2 patients
[8] = 90 mg bid, HD1 and HD2 patients
[9] = 112.5 mg bid, HD1 and HD2 patients
[10] = 45 mg bid, Week 26, Stage 1 BL TFC 11-13
[11] = 45 mg bid, Week 52, Stage 1 BL TFC 11-13
[12] = 45 mg bid, Week 52, all pridopidine treated patients
[13] = 67.5 mg bid, Week 26, Stage 1 BL TFC 11-13
[14] = 67.5 mg bid, Week 52, Stage 1 BL TFC 11-13
[15] = 67.5 mg bid, Week 52, all pridopidine treated patients
[16] = 90 mg bid, Week 26, Stage 1 BL TFC 11-13
[17] = 90 mg bid, Week 52, Stage 1 BL TFC 11-13
[18] = 90 mg bid, Week 52, all pridopidine treated patients
[19] = 112.5 mg bid, Week 26, Stage 1 BL TFC 11-13
[20] = 112.5 mg bid, Week 52, Stage 1 BL TFC 11-13
[21] = 112.5 mg bid, Week 52, all pridopidine treated patients

## CCCN1CCC(c2cccc(S(C)(=O)=O)c2)CC1 [pridopidine, 4-[3-(methylsulfonyl)phenyl]-1-propyl-piperidine]
[1]; 67.5 mg bid, FAS
  Wk 52 Δ to placebo, change from baseline in Q-Motor: Pro-Sup-Frequency-MN-Hand: −0.0124 Hz
[1]; [7]
  Wk 52 Δ to placebo, change from baseline in Q-Motor: Pro-Sup-Frequency-MN-Hand: 0.0548 Hz
[1]; 90 mg bid, FAS
  Wk 52 Δ to placebo, change from baseline in Q-Motor: Pro-Sup-Frequency-MN-Hand: −0.0087 Hz
[1]; [8]
  Wk 52 Δ to placebo, change from baseline in Q-Motor: Pro-Sup-Frequency-MN-Hand: 0.0575 Hz
[1]; 112.5 mg bid, FAS
  Wk 52 Δ to placebo, change from baseline in Q-Motor: Pro-Sup-Frequency-MN-Hand: 0.0127 Hz
[1]; [9]
  Wk 52 Δ to placebo, change from baseline in Q-Motor: Pro-Sup-Frequency-MN-Hand: 0.08 Hz
[2]
  secretion of brain-derived neurotrophic factor (BDNF): enhances secretion
[3]
  secondary outcomes (CGI, Patient Global Assessment, VAS pain, BFMDS, EQ-5D, SF-36 etc.): improve the secondary outcomes
  severity of dystonia (BFMDRS or UDRS), primary endpoint: improve the severity of dystonia
[4]; 45 mg bid, Week 26, ALL
  Δ to placebo, change from baseline in UHDRS TMS Excluding Dystonia: 1.39
  Δ to placebo, change from baseline in UHDRS TMS Involuntary Movements: 0.89
[4]; [10]
  Δ to placebo, change from baseline in UHDRS TMS Excluding Dystonia: −3.6
  Δ to placebo, change from baseline in UHDRS TMS Involuntary Movements: −2.49
[4]; [11]
  Δ to placebo, change from baseline in UHDRS TMS Excluding Chorea: −4.09
  Δ to placebo, change from baseline in UHDRS TMS Involuntary Movements: −2.73
[4]; [12]
  Δ to placebo, change from baseline in UHDRS TMS Excluding Chorea: 0.05
  Δ to placebo, change from baseline in UHDRS TMS Involuntary Movements: 0.02
[4]; 67.5 mg bid, Week 26, ALL
  Δ to placebo, change from baseline in UHDRS TMS Excluding Dystonia: 1.97
  Δ to placebo, change from baseline in UHDRS TMS Involuntary Movements: 0.48
[4]; [13]
  Δ to placebo, change from baseline in UHDRS TMS Excluding Dystonia: −2.2
  Δ to placebo, change from baseline in UHDRS TMS Involuntary Movements: −3.07
[4]; [14]
  Δ to placebo, change from baseline in UHDRS TMS Excluding Chorea: −0.18
  Δ to placebo, change from baseline in UHDRS TMS Involuntary Movements: −0.2
[4]; [15]
  Δ to placebo, change from baseline in UHDRS TMS Excluding Chorea: 1.31
  Δ to placebo, change from baseline in UHDRS TMS Involuntary Movements: 0.8
[4]; 90 mg bid, Week 26, ALL
  Δ to placebo, change from baseline in UHDRS TMS Excluding Dystonia: 1.2
  Δ to placebo, change from baseline in UHDRS TMS Involuntary Movements: 0.01
[4]; [16]
  Δ to placebo, change from baseline in UHDRS TMS Excluding Dystonia: −4.35
  Δ to placebo, change from baseline in UHDRS TMS Involuntary Movements: −4
[4]; [17]
  Δ to placebo, change from baseline in UHDRS TMS Excluding Chorea: −4.92
  Δ to placebo, change from baseline in UHDRS TMS Involuntary Movements: −3.8
[4]; [18]
  Δ to placebo, change from baseline in UHDRS TMS Excluding Chorea: 1.67
  Δ to placebo, change from baseline in UHDRS TMS Involuntary Movements: −0.26
[4]; 112.5 mg bid, Week 26, ALL
  Δ to placebo, change from baseline in UHDRS TMS Excluding Dystonia: 2.4
  Δ to placebo, change from baseline in UHDRS TMS Involuntary Movements: 0.76
[4]; [19]
  Δ to placebo, change from baseline in UHDRS TMS Excluding Dystonia: −4.31
  Δ to placebo, change from baseline in UHDRS TMS Involuntary Movements: −1.64
[4]; [20]
  Δ to placebo, change from baseline in UHDRS TMS Excluding Chorea: −1.59
  Δ to placebo, change from baseline in UHDRS TMS Involuntary Movements: 0.8
[4]; [21]
  Δ to placebo, change from baseline in UHDRS TMS Excluding Chorea: 1.94
  Δ to placebo, change from baseline in UHDRS TMS Involuntary Movements: 0.57
[5]; 45 mg bid, FAS
  Δ to placebo, change from baseline in Q-Motor: Tap-Speed-Inter-Onset-interval-MN-Hand: -0.0402 s
[5]; 45 mg bid, HD1 and HD2 patients
  Δ to placebo, change from baseline in Q-Motor: Tap-Speed-Inter-Onset-interval-MN-Hand: -0.0351 s
[5]; 67.5 mg bid, FAS
  Δ to placebo, change from baseline in Q-Motor: Tap-Speed-Inter-Onset-interval-MN-Hand: 0.0152 s
[5]; [7]
  Δ to placebo, change from baseline in Q-Motor: Tap-Speed-Inter-Onset-interval-MN-Hand: -0.0464 s
[5]; 90 mg bid
  Q-Motor Tap Speed Inter Onset interval (IOI): consistent and significant improvement from baseline
  Q-Motor Tap-Speed-Frequency: consistent improvement from baseline
[5]; 90 mg bid, FAS
  Δ to placebo, change from baseline in Q-Motor: Tap-Speed-Inter-Onset-interval-MN-Hand: -0.0064 s
[5]; [8]
  Δ to placebo, change from baseline in Q-Motor: Tap-Speed-Inter-Onset-interval-MN-Hand: -0.0291 s
[5]; 112.5 mg bid, FAS
  Δ to placebo, change from baseline in Q-Motor: Tap-Speed-Inter-Onset-interval-MN-Hand: -0.017 s
[5]; [9]
  Δ to placebo, change from baseline in Q-Motor: Tap-Speed-Inter-Onset-interval-MN-Hand: -0.022 s
[6]
  expression of the BDNF, dopamine receptor 1 (D1R), glucocorticoid receptor (GR) and Akt/PI3K pathways: activates expression
